This passage reports IC50 results from BindingDB's records for doi:10.1021/acsmedchemlett.7b00164 (Shenyang Pharmaceutical University, 2017).

The structures appear in SMILES notation.

The nature of the assay: Inhibition of PDGFR in mouse NIH/3T3 cells assessed as reduction in recombinant human PDGF-BB-induced cell proliferation after 42 hrs by cell titer 96 aqueous one solution based assay.
Consider `COC(=O)c1ccc2c(c1)NC(=O)/C2=C(\Nc1ccc2c(c1)N(C(=O)CN1CCOCC1)CC2)c1ccccc1`, for which the IC50 stood at 100 nM. The value for `COC(=O)c1ccc2c(c1)NC(=O)/C2=C(\Nc1ccc(N2CCC(CN3CCN(C)CC3)C2=O)cc1)c1ccccc1` (centres undefined) was 110 nM; that for `COC(=O)c1ccc2c(c1)NC(=O)/C2=C(\Nc1ccc2c(c1)N(C(=O)Cn1cncn1)CC2)c1ccccc1` was 100 nM. For `COC(=O)c1ccc2c(c1)NC(=O)/C2=C(\Nc1ccc2c(c1)N(C(=O)Cn1cccn1)CC2)c1ccccc1`, the IC50 came out at 110 nM. As to `COC(=O)c1ccc2c(c1)NC(=O)/C2=C(\Nc1ccc(N(C)C(=O)CN2CCN(C)CC2)cc1)c1ccccc1` [BIBF-1120], the IC50 worked out at 85 nM.

With `COC(=O)c1ccc2c(c1)NC(=O)/C2=C(\Nc1ccc(N2C(=O)CC[C@H]2CN2CCN(C)CC2)cc1)c1ccccc1`, the half-inhibitory concentration (IC50) worked out at 110 nM. The figure for `COC(=O)c1ccc2c(c1)NC(=O)/C2=C(\Nc1ccc2c(c1)N(C(=O)CN1CC(C)OC(C)C1)CC2)c1ccccc1` (centres undefined) is 150 nM; for `COC(=O)c1ccc2c(c1)NC(=O)/C2=C(\Nc1ccc2c(c1)N(C(=O)CN1CCCC1=O)CC2)c1ccccc1` it is 260 nM. The figure for `COC(=O)c1ccc2c(c1)NC(=O)/C2=C(\Nc1ccc(N2C(=O)CC[C@@H]2CN2CCN(C)CC2)cc1)c1ccccc1` is 97 nM.
